According to ChEMBL document CHEMBL1127587, “Modeling the anticarcinogenic action of retinoids by making use of the OASIS method. 3. Inhibition of the induction of ornithine decarboxylase by arotinoids” (J Med Chem, 1994):

Assay: Tested for experimental arotinoid inhibitory dose

With `C/C(=C\c1ccc(C(=O)O)cc1)c1ccc2c(c1)C(C)(C)CCO2` as the compound, how does the “-Log ID50” value read?
The value was 8.57.

Which “-Log ID50” value does the source give for `C/C(=C\c1ccc(C(=O)O)cc1)c1ccc2c(c1)C(C)(C)CCC2(C)C` here?
Its value is 10.52.

Which “-Log ID50” value does the source give for `C/C(=C\c1ccc2c(c1)C(C)(C)CCC2(C)C)c1ccc(C(=O)O)cc1` here?
The value was 10.52.

Which “-Log ID50” value does the source give for `C/C(=C\c1ccc(C(=O)O)cc1)c1ccc2c(c1)CCCC2(C)C` here?
Its value is 9.22.

With `C/C(=C(/F)c1ccc(C(=O)O)cc1)c1cc2c(s1)CCCC2(C)C` as the compound, how does the “-Log ID50” value read?
Its value is 9.22.

For `C/C(=C(/F)c1ccc(C(=O)O)cc1)c1ccc2c(c1)C(C)(C)CCC2(C)C`, which “-Log ID50” value is on record?
The value was 10.1.

For `C/C(=C\c1ccc(C(=O)O)cc1)c1ccc2c(c1)C(C)(C)CC[C@H]2C`, which “-Log ID50” value is on record?
The value was 10.22.

With `CC1(C)CCC(C)(C)c2cc3cc(-c4ccc(C(=O)O)cc4)ccc3cc21` as the compound, how does the “-Log ID50” value read?
Its value is 10.15.

With `C/C(=C\c1ccc(C(=O)O)cc1)c1ccc2c(c1)C(C)(C)CCS2` as the compound, how does the “-Log ID50” value read?
The value was 9.3.

With `C/C(=C\c1ccc(C(=O)O)cc1)c1ccc2c(c1)C1CCC2C1` (stereo not given) as the compound, how does the “-Log ID50” value read?
The value was 8.51.

With `C/C(=C\c1ccc2c(c1)C(C)(C)CCS2)c1ccc(C(=O)O)cc1` as the compound, how does the “-Log ID50” value read?
Its value is 9.22.

Which “-Log ID50” value does the source give for `C/C(=C\c1ccc(C(=O)O)cc1)c1ccc2c(c1)C(C)(C)CCC2C` (stereo not given) here?
The value was 10.15.

Which “-Log ID50” value does the source give for `COc1ccc(/C(C)=C/c2ccc(C(=O)O)cc2)cc1C(C)(C)C` here?
Its value is 9.4.

With `C/C(=C\c1ccc(C(=O)O)cc1)c1ccc(SCCC(C)C)cc1` as the compound, how does the “-Log ID50” value read?
The value was 6.77.

With `C/C(=C\c1ccc(C(=O)O)cc1)c1ccc2c(C)c(C)c(C)c(C)c2c1` as the compound, how does the “-Log ID50” value read?
The value was 8.8.

With `C/C(=C\c1ccc(C(=O)O)cc1)c1ccc2c(c1)SCCC2(C)C` as the compound, how does the “-Log ID50” value read?
Its value is 9.22.

With `C/C(=C\c1ccc(C(=O)O)cc1)c1ccc2ccc(C)c(C)c2c1` as the compound, how does the “-Log ID50” value read?
Its value is 6.7.

With `C/C(=C\c1ccc(C(=O)O)cc1)c1ccc2c(c1)C(C)(C)CC[C@@H]2C` as the compound, how does the “-Log ID50” value read?
Its value is 10.3.

For `C/C(=C\c1ccc(C(=O)O)cc1)c1ccc2c(c1)C(C)(C)CCC2`, which “-Log ID50” value is on record?
Its value is 8.96.

With `C/C(=C\c1ccc(C(=O)O)cc1)c1cc2c(s1)CCCC2(C)C` as the compound, how does the “-Log ID50” value read?
Its value is 10.
